Target: Leukotriene B4 receptor 1 (Homo sapiens, UniProt Q15722)
Assay: Compound was tested for inhibition against binding of radioligand [3H]LTB4 to Leukotriene B4 receptor in human neutrophil membranes
Assay type: cell membranes

Chain of Leukotriene B4 receptor 1 (Q15722 whole entry): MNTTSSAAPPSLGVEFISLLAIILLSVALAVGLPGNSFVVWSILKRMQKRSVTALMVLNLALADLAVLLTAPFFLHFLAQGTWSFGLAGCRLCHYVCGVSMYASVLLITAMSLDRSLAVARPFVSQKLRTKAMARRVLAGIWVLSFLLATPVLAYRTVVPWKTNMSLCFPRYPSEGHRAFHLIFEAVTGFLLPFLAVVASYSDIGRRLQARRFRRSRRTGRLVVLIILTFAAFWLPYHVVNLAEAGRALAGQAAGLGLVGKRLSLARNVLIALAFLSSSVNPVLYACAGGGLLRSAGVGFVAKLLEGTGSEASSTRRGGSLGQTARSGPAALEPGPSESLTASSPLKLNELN

| Compound | IC50 |
| --- | --- |
| [N-]=[N+]=Nc1ccc(CCCCC(O)/C=C/C2CCCC(O)(CC(=O)O)C2)cc1I (stereo not drawn) | > 10 µM |
| CN(C)C(=O)CC1(O)CCCC(/C=C/C(O)CCCCc2ccccc2)C1 (stereo not drawn) | 0.04 µM |
| CN(C)C(=O)CC1(O)CCCC(/C=C/C(O)CCCCc2ccc(N=[N+]=[N-])c(I)c2)C1 (stereo in doubt; 6b) | > 10 µM |

More lines, now with the values ahead:

| IC50 | Compound |
| --- | --- |
| 2 µM | [N-]=[N+]=Nc1ccc(CCCCC(O)/C=C/C2CCCC(O)(CC(=O)O)C2)cc1 (stereo not drawn) |
| 0.3 µM | O=C(O)CC1(O)CCCC(/C=C/C(O)CCCCc2ccccc2)C1 (stereo not drawn) |
| 0.7 µM | CN(C)C(=O)CC1(O)CCCC(/C=C/C(O)CCCCc2ccc(N=[N+]=[N-])cc2)C1 (stereo in doubt) |
| 6 µM | CN(C)C(=O)CC1(O)CCCC(/C=C/C(O)CCCCc2ccc(N=[N+]=[N-])c(I)c2)C1 (stereo in doubt) |
| 2 µM | CN(C)C(=O)CC1(O)CCCC(/C=C/C(O)CCCCc2ccc(N=[N+]=[N-])cc2)C1 (stereo in doubt; 4b) |

Source: ChEMBL document CHEMBL1133339, “Leukotriene B4 photoaffinity probes: design, synthesis and evaluation of new arylazide-1,3-disubstituted cyclohexanes” (Bioorg Med Chem Lett, 2000)
